Data published in patent US9327025B2, “Enriched 10-boron composition for cancer therapy and a method of synthesizing the same” (priority 2012, dated 2016).
Where two headings read alike, the source gives them in different places.

How the values were obtained:
[1] = cancerous mice; in vitro and in vivo tests
From the text: In this research, a new smart drug, Enriched Boron-10 Calcium Fructo Borate (E^10BCFB), was investigated for using in cancer cells treatment in BNCT methods. […] E^10BCFB is in fact an artificial Calcium Fructo-Borate which is synthesized chemically with 10-Boron.

[2] = system: breast cancer cells MDA-MB-231
[3] = system: MDA-MB241 cell line (malignant breast cells); conditions: 24 hours
Protocol: MTT assay method was applied for evaluating the effects of Boron complex on MDA-MB241 cell line (malignant breast cells) in in vitro environment.
This is due to the fact that since food composition was used in the synthesis of the drug, tumor cells think that they are provided with food compostions. But after a while the number of cells will decrease by the drug. For different concentrations of Boron including 5 mg, 10 mg, 25 mg, 50 mg and 100 mg, these decreases are equal to 80, 50, 64, 79, and 36. After 48 hours similar results with little differences have been observed with 24 hours time interval.

Substance: Enriched 10-Boron Calcium Fructo Borate [E^10BCFB]
- safety of the drug [1]: safe
- growth of breast cancer cells ([2]; MDA-MB-231): prevents the growth of breast cancer cells
- Caspase-3 activity ([2]; tumor cells treated with the drug): increases the Caspase-3 activity
- decrease of the number of cells (MTT) ([3]; concentration of Boron 5 mg): 80
- decrease of the number of cells (MTT) ([3]; concentration of Boron 10 mg): 50
- decrease of the number of cells (MTT) ([3]; concentration of Boron 25 mg): 64
- decrease of the number of cells (MTT) ([3]; concentration of Boron 50 mg): 79
- decrease of the number of cells (MTT) ([3]; concentration of Boron 100 mg): 36
- concentration ratio of tumor to the 10-Boron concentration in the blood (3 hours after injection of 41.1 mg complex per 30 gram animal weight): about 4.5
- concentration of 10-Boron in the blood (3 hours after intraperitoneal injection of 41.1 mg complex per 30 gram animal weight, blood): about 6.1 ppm
- accumulation of 10-Boron in tumor cells (3 hours after intraperitoneal injection of 41.1 mg complex per 30 gram animal weight, tumor): about 27 ppm
